Data set [1] can be described thus: In vitro microsomal metabolic stability assay, rat. It is filed as in vitro ADME. The following applies: rat liver microsomes 0.25 mg/mL, 1.0 μM compound, NADPH. How it is done:
(§1) Materials. Rat, Dog, Monkey and Human liver microsomes (20 mg/mL) were obtained from Xenotech, LLC (Lenexa, Kans.). P-nicotinamide adenine dinucleotide phosphate, reduced form (NADPH), magnesium chloride (MgCl2), and dimethyl sulfoxide (DMSO) were purchased from Sigma-Aldrich.
(§2) Methods. […] The 10 mM stock solutions were diluted to 100 μM in DMSO. In each cluster polypropylene tube, 190.7 μL of 100 mM phosphate buffer, pH 7.4 was added, then 2.5 μL of liver mocrosomes (20 mg/mL, rat, dog, monkey or human) was added, then a 2 μL aliquot of the 100 μM test compound was added, and the mixture was pre-warmed for 10 minutes. Reactions were initiated by addition of 4.8 μL of pre-warmed NADPH solution (100 mM in 100 mM phosphate buffer). The final reaction volume was 200 μL and contained 0.25 mg/mL rat, dog, monkey or human liver microsomes, 1.0 μM test compound, and 2.4 mM NADPH in 0.1 M potassium phosphate buffer, pH 7.4. The reaction mixtures were incubated at 37° C., and the reactions were quenched at 0, 15, 30 and 60 minutes by adding 200 μL of ice-cold quench solution (ACN:MeOH:0.1% formic acid in water 2:2:1) containing internal standard, n=3 per time point. The tubes were centrifuged and supernatants were analyzed for amounts of the test compound remaining by LC-MS/MS. The HPLC system included a Phenomenex Luna C8 column, 3 micron, 2 mm diameter×30 mm long eluted with a gradient mobile phase consisting of 0.1% formic acid in water or in acetonitrile. The analytes were detected by MS/MS with Electrospray Ionization (ESI) in the mode of multiple reaction monitoring (MRM). The injection volume was 10 μL.
In general terms: Liver microsomes are a subcellular fraction often used to study metabolism.

The next data set has as its target T1, human NaV 1.8 (Homo sapiens, UniProt Q9Y5Y9).
T1 construct: expressed in transfected cells; host or cells: HEK cells, grown under blasticidin selection; KIR2.1 BacMam virus added before seeding
The data set is described as follows: E-VIPR assay for NaV inhibition. Format: cell-based. The note with it: HEK cells expressing human NaV 1.8, E-VIPR, normalised to positive control 25 μM. An excerpt: Sodium ion channels are voltage-dependent proteins that can be activated by inducing membrane voltage changes by applying electric fields. […] The instrument comprises a microtiter plate handler, an optical system for exciting the coumarin dye while simultaneously recording the coumarin and oxonol emissions, a waveform generator, a current- or voltage-controlled amplifier, and parallel electrode pairs that are inserted into assay plate wells. Under integrated computer control, this instrument passes user-programmed electrical stimulus protocols to cells within the wells of the microtiter plate.
The solution was made by adding 10% Pluronic F127 stock equal to combined volumes of CC2-DMPE and DiSBAC6(3).
Then 25 μL per well from compound plate was transferred to each cell plate.
A pre-stimulus recording was performed for 0.5 seconds to obtain the un-stimulated intensities baseline. The stimulatory waveform was followed by 0.5 seconds of post-stimulation recording to examine the relaxation to the resting state.

Data set [2] is described as follows: In vitro microsomal metabolic stability assay, dog. It is filed as in vitro ADME. The note with it: dog liver microsomes 0.25 mg/mL, 1.0 μM compound, NADPH. How it is done:
as §1, §2

Data set [3] can be described thus: In vitro microsomal metabolic stability assay, human. Format: in vitro ADME. The note with it: human liver microsomes 0.25 mg/mL, 1.0 μM compound, NADPH. The protocol: as §1, §2
Data set [4] can be described thus: In vitro microsomal metabolic stability assay, monkey. The note with it: monkey liver microsomes 0.25 mg/mL, 1.0 μM compound, NADPH. Format: in vitro ADME. How it is done:
as §1, §2

We go through 1 molecule from patent publication US11358977B2, “Deuterated pyridone amides and prodrugs thereof as modulators of sodium channels” (VERTEX PHARMACEUTICALS INCORPORATED, priority 2017, dated 2022).

T1 sequence (Q9Y5Y9 whole entry): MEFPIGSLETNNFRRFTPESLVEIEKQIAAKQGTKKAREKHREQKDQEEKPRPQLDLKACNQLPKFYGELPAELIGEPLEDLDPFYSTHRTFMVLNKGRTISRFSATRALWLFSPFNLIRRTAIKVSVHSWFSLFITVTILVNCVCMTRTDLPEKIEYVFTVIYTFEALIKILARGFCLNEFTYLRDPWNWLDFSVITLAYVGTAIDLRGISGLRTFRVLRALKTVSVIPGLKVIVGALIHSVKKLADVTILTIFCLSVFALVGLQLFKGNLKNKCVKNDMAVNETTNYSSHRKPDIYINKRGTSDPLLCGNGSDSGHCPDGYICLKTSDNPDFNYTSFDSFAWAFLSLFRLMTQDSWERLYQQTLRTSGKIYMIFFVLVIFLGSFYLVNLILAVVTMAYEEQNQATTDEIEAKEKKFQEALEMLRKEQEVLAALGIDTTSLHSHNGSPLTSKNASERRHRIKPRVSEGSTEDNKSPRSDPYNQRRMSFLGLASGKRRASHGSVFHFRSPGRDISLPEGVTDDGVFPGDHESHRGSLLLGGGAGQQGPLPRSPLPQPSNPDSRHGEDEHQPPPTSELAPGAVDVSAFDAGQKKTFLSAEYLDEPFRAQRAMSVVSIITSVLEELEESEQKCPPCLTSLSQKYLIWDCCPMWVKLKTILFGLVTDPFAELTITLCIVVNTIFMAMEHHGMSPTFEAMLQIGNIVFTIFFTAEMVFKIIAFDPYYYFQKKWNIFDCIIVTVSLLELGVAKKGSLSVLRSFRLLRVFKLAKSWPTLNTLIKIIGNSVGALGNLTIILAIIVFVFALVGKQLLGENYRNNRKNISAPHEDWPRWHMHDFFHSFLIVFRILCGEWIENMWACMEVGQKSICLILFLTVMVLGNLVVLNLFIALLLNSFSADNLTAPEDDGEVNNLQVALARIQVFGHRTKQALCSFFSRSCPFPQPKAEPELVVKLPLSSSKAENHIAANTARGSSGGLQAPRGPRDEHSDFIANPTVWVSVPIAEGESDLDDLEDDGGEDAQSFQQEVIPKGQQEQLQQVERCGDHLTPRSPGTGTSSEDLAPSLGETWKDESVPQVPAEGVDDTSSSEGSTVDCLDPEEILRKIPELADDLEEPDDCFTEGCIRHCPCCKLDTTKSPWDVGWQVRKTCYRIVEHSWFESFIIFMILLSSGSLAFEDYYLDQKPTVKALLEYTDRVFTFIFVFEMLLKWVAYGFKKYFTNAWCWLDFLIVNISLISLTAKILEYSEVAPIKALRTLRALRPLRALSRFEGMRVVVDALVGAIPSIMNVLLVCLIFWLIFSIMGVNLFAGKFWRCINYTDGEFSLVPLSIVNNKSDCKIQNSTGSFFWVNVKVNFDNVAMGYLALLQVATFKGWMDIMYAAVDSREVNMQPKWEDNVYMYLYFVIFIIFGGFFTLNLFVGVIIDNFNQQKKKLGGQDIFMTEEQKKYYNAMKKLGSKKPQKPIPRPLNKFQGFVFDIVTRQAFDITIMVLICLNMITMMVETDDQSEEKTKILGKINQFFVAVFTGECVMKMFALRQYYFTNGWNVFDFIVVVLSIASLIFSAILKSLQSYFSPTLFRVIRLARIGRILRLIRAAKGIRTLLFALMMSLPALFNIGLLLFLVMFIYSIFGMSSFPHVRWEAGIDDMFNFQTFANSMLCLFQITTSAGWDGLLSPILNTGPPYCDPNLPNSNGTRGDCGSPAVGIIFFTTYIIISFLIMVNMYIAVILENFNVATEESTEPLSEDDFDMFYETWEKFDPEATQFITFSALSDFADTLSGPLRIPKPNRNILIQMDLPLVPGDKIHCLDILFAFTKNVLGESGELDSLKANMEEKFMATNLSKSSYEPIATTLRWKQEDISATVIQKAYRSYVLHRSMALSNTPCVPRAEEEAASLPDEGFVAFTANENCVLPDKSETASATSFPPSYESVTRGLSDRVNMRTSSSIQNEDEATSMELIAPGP

Consider `[2H]C([2H])([2H])c1cc(F)ccc1Oc1cc(C(F)(F)F)ccc1C(=O)Nc1cc[nH]c(=O)c1` [Compound 7, 2-(4-fluoro-2-(methyl-d3)phenoxy)-N-(2-oxo-1,2-dihydropyridin-4-yl)-4-(trifluoromethyl)benzamide], for which the “% remaining” value came to 100% in data set [1] (0 min); 109% in data set [1] (15 min); 105% in data set [1] (30 min); 92.2% in data set [1] (60 min); 100% in data set [2] (0 min); 86.1% in data set [2] (15 min). The “% remaining” value in data set [2] (30 min) amounted to 85.8%; in data set [2] (60 min), 87.5%; in data set [3] (0 min) it was 100%; in data set [3] (15 min), 109%; in data set [3] (30 min) it was 105%; in data set [3] (60 min) it was 106%. In addition, the “% remaining” value in data set [4] (0 min) is 100%; in data set [4] (15 min), 97.0%; in data set [4] (30 min), 93.3%; in data set [4] (60 min), 92.5%. In addition, the “Nav1.8 Max % Activity” value on human NaV 1.8 is 98%.
